# From ChEMBL document CHEMBL1146999, “Bradykinin antagonists modified with dipeptide mimetic beta-turn inducers” (Bioorg Med Chem Lett, 2006)
# Columns and labels:
# B2 bradykinin receptor [1] = target: T1, B2 bradykinin receptor (Homo sapiens, UniProt P30411); assay: Antagonist activity against bradykinin B2 receptor; format: functional; conditions: read-out: pA2 (converted)
# T1 sequence (P30411 whole entry): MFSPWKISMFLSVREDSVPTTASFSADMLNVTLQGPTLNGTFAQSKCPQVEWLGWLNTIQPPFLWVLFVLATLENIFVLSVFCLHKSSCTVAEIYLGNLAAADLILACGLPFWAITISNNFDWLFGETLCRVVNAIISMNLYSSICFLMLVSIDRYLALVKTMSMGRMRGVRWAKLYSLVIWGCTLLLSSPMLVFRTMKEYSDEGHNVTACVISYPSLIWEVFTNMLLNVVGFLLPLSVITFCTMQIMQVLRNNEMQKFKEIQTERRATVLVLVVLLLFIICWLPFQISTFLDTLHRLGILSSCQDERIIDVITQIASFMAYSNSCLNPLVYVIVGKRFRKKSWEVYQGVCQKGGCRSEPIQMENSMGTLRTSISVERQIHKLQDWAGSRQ
# B2 bradykinin receptor [2] = target: T1, B2 bradykinin receptor; assay: Binding affinity to human bradykinin B2 receptor transfected in CHO cells; format: cell-based
Kb (B2 bradykinin receptor [1]),Ki (B2 bradykinin receptor [2]),SMILES
2510 nM,100 nM,NC(N)=NCCC[C@@H](N)C(=O)N[C@@H](CCCN=C(N)N)C(=O)N1CCC[C@H]1C(=O)N1CC(O)C[C@H]1C(=O)NCC(=O)N[C@@H](Cc1cccs1)C(=O)N[C@@H](CO)C(=O)N[C@@]1(Cc2ccccc2)CCCC2N(C1=O)[C@H](C(=O)N[C@@H](CCCN=C(N)N)C(=O)O)CC21CCCC1 (some centres undefined)
> 10000 nM,3160 nM,NC(N)=NCCC[C@@H](N)C(=O)N[C@@H](CCCN=C(N)N)C(=O)N1CCC[C@H]1C(=O)N1CC(O)C[C@H]1C(=O)NCC(=O)N[C@@H](Cc1cccs1)C(=O)N[C@@H](CO)C(=O)N[C@]1(Cc2ccccc2)CCCC2N(C1=O)[C@H](C(=O)N[C@@H](CCCN=C(N)N)C(=O)O)CC21CCCC1 (some centres undefined)
